Structures can show the parent of a compound that is named as a salt. Where two headings read alike, the source gives them in different places.
Legend:
STZ/HFD rat = assay: Blood glucose determination in the STZ/HFD rat model of Type 2 diabetes; format: in vivo; details: STZ/HFD rat model, oral compound administration (30 mg/kg)
Source text: Blood Glucose Determination in the STZ/HFD Rat Model of Type 2 Diabetes
Representative compounds were also profiled in genetically normal rats given a high-fat diet followed by treatment with a low dose of streptozotocin (STZ/HFD). This treatment regimen recreates both the insulin resistance and the hyperglycemia seen in human Type 2 diabetes. Male CD rats (Jackson Labs, Bar Harbor Me.) were maintained according to NIH guidelines, housed two per cage, and fed either standard lab chow (Tekland Laboratory Diets, James Grain, San Jose, Calif.) or the same chow supplemented with chocolate bars, cookies, and potato chips such that their final diet contained 30% fat by weight (high-fat diet; HFD). After two weeks of this diet, the animals were given an injection of freshly-prepared streptozotocin (35 mg/kg, i.p.) and continued on the HFD. Animals that achieved glucose levels of 190 to 380 mg/dl were used in this study. At the end of the 12-hour light/dark cycle, and just prior to the experiment, the animals were moved to new cages with no food available until 4 hours after treatment. The compound or vehicle (PBS) was given p.o. by gavage, and blood was sampled by approved IACUC protocol using tail cap method. Glucose was determined using the Glucometer Elite (Bayer, Elkhart, Ind.).
The reduction was maximal (20%) 4 hours after the administration of Compound 15.

3T3 L1 fibroblasts = assay: Glucose transport activity assay (14C-2-deoxy-D-glucose uptake); format: cell-based; details: EC (effective concentration) for increase in glucose transport, 14C-2-deoxy-D-glucose, 3T3 L1 cells, read-out: Concentration (μM) to reach >150% activity of vehicle control
In short: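 Differentiated 3T3 L1 adipocytes (IBMX/dexamethasone/insulin induction), serum-starved overnight, preincubated 30 min at 37 °C with compound ± insulin in pH 7.4 salt buffer, then 30 min with 5 μCi/ml 14C-2-deoxy-D-glucose. Lysate radioactivity counted; EC = concentration raising uptake above 150% of vehicle control.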

[1] = biological target: T1, β-kinase domain of the human insulin receptor (CKD) (Homo sapiens, UniProt P06213); assay: 32P-cytoplasmic kinase domain (CKD) autophosphorylation assay; format: biochemical; details: phosphorylation of CKD expressed as % of the vehicle level; 10 minutes at room temperature; compound concentration not given
T1 construct: The complete β-kinase domain of the human insulin receptor (CKD) was expressed in, and purified from, baculovirus; made in house
T1 sequence (P06213 980-1382 limits assumed): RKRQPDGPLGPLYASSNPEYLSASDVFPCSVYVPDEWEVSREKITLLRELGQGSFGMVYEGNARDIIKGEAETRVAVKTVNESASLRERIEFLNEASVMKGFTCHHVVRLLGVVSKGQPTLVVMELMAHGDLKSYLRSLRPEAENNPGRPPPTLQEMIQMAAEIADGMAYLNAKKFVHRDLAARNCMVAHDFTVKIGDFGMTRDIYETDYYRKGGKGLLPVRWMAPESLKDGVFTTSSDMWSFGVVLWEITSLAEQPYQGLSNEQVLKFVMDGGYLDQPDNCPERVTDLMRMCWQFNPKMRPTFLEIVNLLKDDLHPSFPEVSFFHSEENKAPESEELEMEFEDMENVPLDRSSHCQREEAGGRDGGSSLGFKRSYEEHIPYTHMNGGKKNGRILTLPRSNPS
Experimental: ^32P-cytoplasmic Kinase Domain (CKD) Autophosphorylation Assay The insulin signaling pathway is activated through stimulation of the insulin receptor. A major component of this activation is the phosphorylation of a specific portion of the receptor called the β-kinase domain. The complete β-kinase domain of the human insulin receptor (CKD) was expressed in, and purified from, baculovirus. CKD (4.0μg/ml), in a solution of 29 mM HEPES (pH 7.6), 0.05% Triton X-100, 10 mM MgCl2, 2 mM MnCl2 (50 μl final volume), was combined with 50 μM ATP, and 5 μCi ^32P-ATP (3000Ci/mmol.). A test compound, or the vehicle (dimethyl sulfoxide (DMSO)) was added to a final DMSO concentration of 1%. The mixture was incubated for 10 minutes at room temperature. The reaction was terminated by the addition of 10 μl 200 mM EDTA. A 30 μl volume was removed, mixed with 5 μl of 6× Laemmeli sodium dodecyl sulfate (SDS) treatment buffer, and heated to 94° C. for 5 minutes. A 20 μl aliquot was then run an SDS-PAGE gel. The radioactivity incorporated into the CKD band was quantified by phosphorimaging of the gel, or scintillation counting of the excised bands. The potency of a compound for increasing phosphorylation was expressed as % of the vehicle level.

SMILES	% Reduction in Blood Glucose (maximal reduction) (STZ/HFD rat)	Time (h) at which maximal reduction in blood glucose occurred (STZ/HFD rat)	EC (150% of vehicle control) (3T3 L1 fibroblasts; Mus musculus)	% Activity vs. Control [1]	EC (150% of vehicle control) (3T3 L1 fibroblasts)
COC(=O)c1cccc(NS(=O)(=O)c2cc(O)c3ccc(NC(=O)Nc4ccc5c(O)cc(S(=O)(=O)Nc6cccc(C(=O)OC)c6)cc5c4)cc3c2)c1 [Compound 41, methyl 3-({[4-hydroxy-7-({[5-hydroxy-7-({[3-(methoxycarbonyl)phenyl]amino}sulfonyl)(2-naphthyl)]amino}carbonylamino)-2-naphthyl]sulfonyl}amino)benzoate]	20%	4 h	32 µM	109%	–
O=C(Nc1ccc2c(O)c(Br)c(S(=O)(=O)O)cc2c1)Nc1ccc2c(O)c(Br)c(S(=O)(=O)O)cc2c1 [Compound 16, 3-bromo-7-{[(6-bromo-5-hydroxy-7-sulfo(2-naphthyl))amino]carbonylamino}-4-hydroxynaphthalene-2-sulfonic acid disodium salt]	–	–	32 µM	144%	–
COc1cc(S(=O)(=O)O)cc2cc(NC(=O)Nc3ccc4c(OC)cc(S(=O)(=O)O)cc4c3)ccc12 [Compound 99, 4-methoxy-7-{[(5-methoxy-7-sulfo(2-naphthyl))amino]carbonylamino}naphthalene-2-sulfonic acid]	–	–	32 µM	110%	–
O=C(Nc1ccc2ccc(S(=O)(=O)Nc3ccc(Cl)c(C(=O)O)c3)cc2c1)Nc1ccc2ccc(S(=O)(=O)Nc3ccc(Cl)c(C(=O)O)c3)cc2c1 [Compound 48, 5-{[(7-{[N-(7-{[(3-carboxy-4-chlorophenyl)amino]sulfonyl}(2-naphthyl))carbamoyl]amino}(2-naphthyl))sulfonyl]amino}-2-chlorobenzoic acid]	24%	2 h	3.2 µM	–	–
NS(=O)(=O)c1ccc2ccc(NC(=O)Nc3ccc4ccc(S(N)(=O)=O)cc4c3)cc2c1 [Compound 89, N-(7-sulfamoyl(2-naphthyl))[(7-sulfamoyl(2-naphthyl))amino]carboxamide]	–	–	3.2 µM	104%	–
O=C(Nc1ccc2ccc(S(=O)(=O)O)cc2c1)Nc1ccc2ccc(S(=O)(=O)O)cc2c1 [Compound 3, 7-{[(7-sulfo-2-naphthyl)amino]carbonylamino}naphthalene-2-sulfonic acid disodium salt]	–	–	3.2 µM	88%	–
O=C(Nc1ccc2c(O)cc(S(=O)(=O)Nc3ccc(C(=O)O)cc3)cc2c1)Nc1ccc2c(O)cc(S(=O)(=O)Nc3ccc(C(=O)O)cc3)cc2c1 [Compound 29, 4-{[(7-{[N-(7-{[(4-carboxyphenyl)amino]sulfonyl}-5-hydroxy(2-naphthyl))carbamoyl]amino}-4-hydroxy-2-naphthyl)sulfonyl]amino}benzoic acid]	18%	6 h	3.2 µM	106%	–
O=C(Nc1ccc2c(O)cc(S(=O)(=O)Nc3cccc(C(=O)O)c3)cc2c1)Nc1ccc2c(O)cc(S(=O)(=O)Nc3cccc(C(=O)O)c3)cc2c1 [Compound 42, 3-{[(7-{[N-(7-{[(3-carboxyphenyl)amino]sulfonyl}-5-hydroxy(2-naphthyl))carbamoyl]amino}-4-hydroxy-2-naphthyl)sulfonyl]amino}benzoic acid]	–	–	3.2 µM	124%	–
O=C(Nc1ccc2c(O)cc(S(=O)(=O)O)cc2c1)Nc1ccc2c(O)cc(S(=O)(=O)Nc3ccc(C(=O)O)cc3)cc2c1 [Compound 28, 4-{[(4-hydroxy-7-{[N-(5-hydroxy-7-sulfo(2-naphthyl))carbamoyl]amino}-2-naphthyl)sulfonyl]amino}benzoic acid]	–	–	32 µM	124%	–
O=C(Nc1ccc2c(O)cc(S(=O)(=O)Nc3ccc(Cl)c(S(=O)(=O)O)c3)cc2c1)Nc1ccc2c(O)cc(S(=O)(=O)Nc3ccc(Cl)c(S(=O)(=O)O)c3)cc2c1 [Compound 93, 2-chloro-5-{[(7-{[(7-{[(4-chloro-3-sulfophenyl)amino]sulfonyl}-5-hydroxy(2-naphthyl))amino]carbonylamino}-4-hydroxy(2-naphthyl))sulfonyl]amino}benzenesulfonic acid]	25%	4 h	3.2 µM	–	–
CCOC(=O)COc1cc(S(=O)(=O)O)cc2cc(NC(=O)Nc3ccc4c(O)cc(S(=O)(=O)O)cc4c3)ccc12.N.N [Compound 94, 7-[({5-[(ethoxycarbonyl)methoxy]-7-sulfo(2-naphthyl)}amino)carbonylamino]-4-hydroxy-naphthalene-2-sulfonic acid, diammonium salt]	–	–	–	279%	32 µM
COC(=O)c1cccc(NS(=O)(=O)c2ccc3ccc(NC(=O)Nc4ccc5ccc(S(=O)(=O)Nc6cccc(C(=O)OC)c6)cc5c4)cc3c2)c1 [Compound 39, methyl 3-({[7-({[7-({[3-(methoxycarbonyl)phenyl]amino}sulfonyl)-2-naphthyl]amino}carbonylamino)-2-naphthyl]sulfonyl}amino)benzoate]	–	–	32 µM	93%	–
O=C(Nc1ccc2ccc(S(=O)(=O)Nc3cccnc3)cc2c1)Nc1ccc2ccc(S(=O)(=O)Nc3cccnc3)cc2c1 [Compound 77, N-{7-[(3-pyridylamino)sulfonyl](2-naphthyl)}({7-[(3-pyridylamino)sulfonyl](2-naphthyl)}amino)carboxamide]	–	–	3.2 µM	171%	–
NS(=O)(=O)c1cccc(NS(=O)(=O)c2ccc3ccc(NC(=O)Nc4ccc5ccc(S(=O)(=O)Nc6cccc(S(N)(=O)=O)c6)cc5c4)cc3c2)c1 [Compound 23, N-(7-{[(3-sulfamoylphenyl)amino]sulfonyl}(2-naphthyl))[(7-{[(3-sulfamoylphenyl)amino]sulfonyl}(2-naphthyl))amino]carboxamide]	–	–	10 µM	80%	–

— patent publication US7071231B2, “Naphthalene ureas as glucose uptake enhancers” (Telik, Inc., priority 1999, dated 2006)
